{"source": "patent EP2926811A1", "about": "“ARTEMETHER-CONTAINING PHARMACEUTICAL COMPOSITION, PREPARATION, AND USE THEREOF” (Kunming Pharmaceutical Corp., priority 2012, dated 2014)", "format_in_all_cases": "cell-based", "key": {"PC-3 cells": {"system": "PC-3 cells", "experiment": "modified MTT method, proliferation of PC-3 cells", "details": "Homo sapiens, read-out: IC50 on the growth of PC-3 cells", "experimental": "(§1) Five test concentrations 2, 10, 50, 250 and 500 µM were set for each of five derivatives of artemisinin, artemether drug substance, artemisinin, dihydroartemisinin, artesunate were dissolved with dimethyl sulfoxide (DMSO), while the lyophilized powder of artemether was dissolved with normal saline (N.S.), followed by addition of a certain amount of RPMI 1640 complete culture solution to formulate a high-concentration solution, and each of the low-concentration solutions was formulated by proportionate dilution from the high-concentration solution.\n(§2) The concentrations of DMSO contained in the solutions at the two relatively high concentrations 500 and 250 µM for the artemether drug substance, artemisinin, dihydroartemisinin, artesunate, used as solvent controls, were formulated with […] culture solution, at which time the test concentrations of DMSO were 1% and 0.5%. The concentrations of the excipients contained in the solutions at the two relatively high concentrations 500 and 250 µM for the preparation of lyophilized powder of artemether were used as solvent controls.\n(§3) The positive control was an anti-cancer drug adriamycin (ADM), which was set at three test concentrations (final concentrations) of 0.1, 1 and 10 µg/ml. To ADM stock solution (1 mg/ml) a certain amount of PRMI 1640 complete culture solution was added, to formulate a high-concentration solution, and each of the low-concentration solutions were formulated by proportionate dilutions from the high-concentration solution.\n(§4) HL-60: (human promyelocytic leukemia cell line); K562 (human chronic myelocytic leukemia cell line); HT-29 (human colon cancer cell line); PC-3 (human prostate cancer cell line); A549 (human non-small cell lung cancer cell line); MKN-28 (human gastric cancer cell line); Hep2 (human laryngeal cancer cell line), all of which were purchased from Cell Bank of Shanghai Institutes for Biological Sciences, the Chinese Academy of Sciences.\n(§5) Influence of the five test samples on the proliferation of 7 human tumor cell lines was determined via a modified MTT method.\n(§6) Cells in logarithmic growth phase were taken, adjusted to a certain concentration and then added into a 96 well culture plate. After culture of adherent cells for a period until adherence, the test samples were added; and for suspension cells, the test samples were added after inoculation. 5 test concentrations 2, 10, 50, 250 and 500 µM were set, with 3 parallel wells for each concentration, 10 µl/well; the solvent controls were 0.5% and 1% of isovolumetric DMSO, and the positive controls was ADM at 3 concentrations 0.1, 1 and 10 µg/ml. The samples were loaded followed by culture for a period of time in an incubator at 37°C, 5% CO2, followed by addition of MTT (5 mg/ml) at 20 µl/well, and continued to be cultured for a period of time and added with a three-combined solution [10% SDS - 5% isobutanol - 0.012 mol/L HCl (W/V/V)]. After dissolving in uniformity, it was continued to be placed in the incubator at 37°C, 5% CO2 for a period of time, and the OD value of each well was determined under a wavelength of 570 nm with a microplate reader, according to which the results were calculated.\n(§7) The cellular proliferation inhibition rate was calculated in accordance with the following equation: Inhibition rate (%) = (OD valuecontrol well-OD valuesample well)/OD valuecontrol well × 100% [formula]\n(§8) When the inhibition rate of DMSO on cells was more than 15%, calculation was carried out using the following equation: Inhibition rate (%) = (OD valuesolvent group-OD valueadministered well)/OD valuesolvent group × 100% [formula]\n(§9) The inhibition rate was calculated by using Microsoft Excel 2003, and median inhibitory concentration IC50 was calculated with a LOGIT method, which was used as an indicator for judging the inhibitory capability."}, "Hep2 cells": {"system": "Hep2 cells", "experiment": "modified MTT method, proliferation of Hep2 cells", "details": "Homo sapiens, HEp-2, 72 h, secondary screening", "experimental": "as §1, §2, §3, §4, §5, §6, §7, §8, §9\n(§10) According to the results of preliminary screening, further experiments were adjusted such that more sensitive cell lines were screened out. […]"}, "MKN-28 cells": {"system": "MKN-28 cells", "experiment": "modified MTT method, proliferation of MKN-28 cells", "details": "Homo sapiens, MKN-28, 72 h, secondary screening", "experimental": "as §1, §2, §3, §4, §5, §6, §7, §8, §9, §10"}, "K562 cells": {"system": "K562 cells", "experiment": "modified MTT method, proliferation of K562 cells", "details": "Homo sapiens, read-out: IC50 on the growth of K562 cells", "experimental": "as §1, §2, §3, §4, §5, §6, §7, §8, §9"}, "HL-60 cells": {"system": "HL-60 cells", "experiment": "modified MTT method, proliferation of HL-60 cells", "details": "Homo sapiens, read-out: IC50 on the growth of HL-60 cells", "experimental": "as §1, §2, §3, §4, §5, §6, §7, §8, §9"}, "A549 cells": {"system": "A549 cells", "experiment": "modified MTT method, proliferation of A549 cells", "details": "Homo sapiens, read-out: IC50 on the growth of A549 cells", "experimental": "as §1, §2, §3, §4, §5, §6, §7, §8, §9"}, "HT-29 cells": {"system": "HT-29 cells", "experiment": "modified MTT method, proliferation of HT-29 cells", "details": "Homo sapiens", "experimental": "as §1, §2, §3, §4, §5, §6, §7, §8, §9, §10"}}, "note": "Read-outs that look alike come from different tables or passages of the source.", "data": [{"compound": "CO[C@H]1O[C@@H]2O[C@@]3(C)CC[C@H]4[C@H](C)CC[C@@H]([C@H]1C)[C@@]24OO3", "note": "[artemether drug substance, (3R,5αS,6R,8αS,9R,10S,12R,12αR)-decahydro-10-methoxy-3,6,9-trimethyl-3,12-epoxy-12H-pyrano[4,3-j]-1,2-benzodioxepin]", "values": [{"measurement": "IC50", "setting": "PC-3 cells; PC-3, 24 h, Batch 1, 24 h", "result": "> 1000", "unit": "µM"}, {"measurement": "IC50", "setting": "PC-3 cells; PC-3, 24 h, Batch 2, 24 h", "result": "> 1000", "unit": "µM"}, {"measurement": "IC50", "setting": "PC-3 cells; PC-3, 48 h, Batch 1, 48 h", "result": "> 1000", "unit": "µM"}, {"measurement": "IC50", "setting": "PC-3 cells; PC-3, 48 h, Batch 2, 48 h", "result": "> 1000", "unit": "µM"}, {"measurement": "IC50", "setting": "PC-3 cells; PC-3, 72 h, Batch 1, 72 h", "result": "> 1000", "unit": "µM"}, {"measurement": "IC50", "setting": "PC-3 cells; PC-3, 72 h, Batch 2, 72 h", "result": "> 1000", "unit": "µM"}, {"measurement": "IC50", "setting": "Hep2 cells; Batch 1, read-out: IC50 on the growth of Hep2 cells (72 h)", "result": 412, "unit": "µM"}, {"measurement": "IC50", "setting": "Hep2 cells; Batch 2, read-out: IC50 on the growth of Hep2 cells (72 h)", "result": "> 1000", "unit": "µM"}, {"measurement": "IC50", "setting": "Hep2 cells; Batch 3, read-out: IC50 on the growth of Hep2 cells (72 h)", "result": "> 1000", "unit": "µM"}, {"measurement": "IC50", "setting": "Hep2 cells; average, read-out: IC50 on the growth of Hep2 cells (72 h)", "result": "> 1000", "unit": "µM"}, {"measurement": "IC50", "setting": "MKN-28 cells; Average, read-out: IC50 on the growth of MKN-28 cells (72 h)", "result": 402, "unit": "µM"}, {"measurement": "IC50", "setting": "MKN-28 cells; Batch 1, read-out: IC50 on the growth of MKN-28 cells (72 h)", "result": 27900, "unit": "µM"}, {"measurement": "IC50", "setting": "MKN-28 cells; Batch 2, read-out: IC50 on the growth of MKN-28 cells (72 h)", "result": 336, "unit": "µM"}, {"measurement": "IC50", "setting": "MKN-28 cells; Batch 3, read-out: IC50 on the growth of MKN-28 cells (72 h)", "result": 520, "unit": "µM"}, {"measurement": "IC50", "setting": "K562 cells; K562, 24 h, Batch 1, 24 h", "result": "> 1000", "unit": "µM"}, {"measurement": "IC50", "setting": "K562 cells; K562, 24 h, Batch 2, 24 h", "result": "> 1000", "unit": "µM"}, {"measurement": "IC50", "setting": "K562 cells; K562, 24 h, Batch 3, 24 h", "result": 345, "unit": "µM"}, {"measurement": "IC50", "setting": "K562 cells; K562, 48 h, Batch 1, 48 h", "result": "> 1000", "unit": "µM"}, {"measurement": "IC50", "setting": "K562 cells; K562, 48 h, Batch 2, 48 h", "result": "> 1000", "unit": "µM"}, {"measurement": "IC50", "setting": "K562 cells; K562, 48 h, Batch 3, 48 h", "result": 331, "unit": "µM"}, {"measurement": "IC50", "setting": "K562 cells; K562, 72 h, Batch 1, 72 h", "result": "> 1000", "unit": "µM"}, {"measurement": "IC50", "setting": "K562 cells; K562, 72 h, Batch 2, 72 h", "result": 893, "unit": "µM"}, {"measurement": "IC50", "setting": "K562 cells; K562, 72 h, Batch 3, 72 h", "result": 137, "unit": "µM"}, {"measurement": "IC50", "setting": "HL-60 cells; HL-60, 24 h, Batch 1, 24 h", "result": "> 1000", "unit": "µM"}, {"measurement": "IC50", "setting": "HL-60 cells; HL-60, 24 h, Batch 2, 24 h", "result": 658, "unit": "µM"}, {"measurement": "IC50", "setting": "HL-60 cells; HL-60, 48 h, Batch 1, 48 h", "result": "> 1000", "unit": "µM"}, {"measurement": "IC50", "setting": "HL-60 cells; HL-60, 48 h, Batch 2, 48 h", "result": 77.2, "unit": "µM"}, {"measurement": "IC50", "setting": "HL-60 cells; HL-60, 72 h, Batch 1, 72 h", "result": "> 1000", "unit": "µM"}, {"measurement": "IC50", "setting": "HL-60 cells; HL-60, 72 h, Batch 2, 72 h", "result": 248, "unit": "µM"}, {"measurement": "IC50", "setting": "A549 cells; A549, 24 h, Batch 1, 24 h", "result": "> 1000", "unit": "µM"}, {"measurement": "IC50", "setting": "A549 cells; A549, 24 h, Batch 2, 24 h", "result": 641, "unit": "µM"}, {"measurement": "IC50", "setting": "A549 cells; A549, 48 h, Batch 1, 48 h", "result": "> 1000", "unit": "µM"}, {"measurement": "IC50", "setting": "A549 cells; A549, 48 h, Batch 2, 48 h", "result": "> 1000", "unit": "µM"}, {"measurement": "IC50", "setting": "A549 cells; A549, 72 h, Batch 1, 72 h", "result": "> 1000", "unit": "µM"}, {"measurement": "IC50", "setting": "A549 cells; A549, 72 h, Batch 2, 72 h", "result": 832, "unit": "µM"}, {"measurement": "IC50", "setting": "HT-29 cells; HT-29, 24 h, preliminary screening, Batch 1, 24 h, read-out: IC50 on the growth of HT-29 cells", "result": "> 1000", "unit": "µM"}, {"measurement": "IC50", "setting": "HT-29 cells; HT-29, 24 h, preliminary screening, Batch 2, 24 h, read-out: IC50 on the growth of HT-29 cells", "result": "> 1000", "unit": "µM"}, {"measurement": "IC50", "setting": "HT-29 cells; HT-29, 48 h, preliminary screening, Batch 1, 48 h, read-out: IC50 on the growth of HT-29 cells", "result": "> 1000", "unit": "µM"}, {"measurement": "IC50", "setting": "HT-29 cells; HT-29, 48 h, preliminary screening, Batch 2, 48 h, read-out: IC50 on the growth of HT-29 cells", "result": "> 1000", "unit": "µM"}, {"measurement": "IC50", "setting": "HT-29 cells; HT-29, 72 h, preliminary screening, Batch 1, 72 h, read-out: IC50 on the growth of HT-29 cells", "result": 318, "unit": "µM"}, {"measurement": "IC50", "setting": "HT-29 cells; HT-29, 72 h, preliminary screening, Batch 2, 72 h, read-out: IC50 on the growth of HT-29 cells", "result": 579, "unit": "µM"}, {"measurement": "IC50", "setting": "HT-29 cells; HT-29, 72 h, secondary screening, 72 h, Batch 1, read-out: IC50 on the growth of HT-29 cells (72 h)", "result": 214, "unit": "µM"}, {"measurement": "IC50", "setting": "HT-29 cells; HT-29, 72 h, secondary screening, 72 h, Batch 2, read-out: IC50 on the growth of HT-29 cells (72 h)", "result": 263, "unit": "µM"}, {"measurement": "IC50", "setting": "HT-29 cells; HT-29, 72 h, secondary screening, 72 h, Batch 3, read-out: IC50 on the growth of HT-29 cells (72 h)", "result": 245, "unit": "µM"}, {"measurement": "IC50", "setting": "HT-29 cells; HT-29, 72 h, secondary screening, 72 h, average, read-out: IC50 on the growth of HT-29 cells (72 h)", "result": 255, "unit": "µM"}]}]}
